3 molecules from US11286281B2, “Homodetic cyclic peptides targeting alpha-4-beta-7 integrin” (priority 2017, dated 2022) can be followed below.

Values joined by “and” are separate entries in the source; they are usually repeats but may differ in a detail not shown here. Equal entries are not always repeated. Numbered stars: 1 amine (or outer) side, 2 acyl side, 3 side chain; on linkers, the order of the positions; unused ones are H or OH. Square brackets hold non-standard residues; d marks the D form. Peptide text beside a SMILES is read from it. X1 = O=C(c1ccc(-c2ccc(N3CCNCC3)cc2)c(CN[*:1])c1)[*:2]

The target in this experiment is T1, integrin α4β7 (Homo sapiens, UniProt P13612+P26010).
T1 sequence (P13612 34-1032): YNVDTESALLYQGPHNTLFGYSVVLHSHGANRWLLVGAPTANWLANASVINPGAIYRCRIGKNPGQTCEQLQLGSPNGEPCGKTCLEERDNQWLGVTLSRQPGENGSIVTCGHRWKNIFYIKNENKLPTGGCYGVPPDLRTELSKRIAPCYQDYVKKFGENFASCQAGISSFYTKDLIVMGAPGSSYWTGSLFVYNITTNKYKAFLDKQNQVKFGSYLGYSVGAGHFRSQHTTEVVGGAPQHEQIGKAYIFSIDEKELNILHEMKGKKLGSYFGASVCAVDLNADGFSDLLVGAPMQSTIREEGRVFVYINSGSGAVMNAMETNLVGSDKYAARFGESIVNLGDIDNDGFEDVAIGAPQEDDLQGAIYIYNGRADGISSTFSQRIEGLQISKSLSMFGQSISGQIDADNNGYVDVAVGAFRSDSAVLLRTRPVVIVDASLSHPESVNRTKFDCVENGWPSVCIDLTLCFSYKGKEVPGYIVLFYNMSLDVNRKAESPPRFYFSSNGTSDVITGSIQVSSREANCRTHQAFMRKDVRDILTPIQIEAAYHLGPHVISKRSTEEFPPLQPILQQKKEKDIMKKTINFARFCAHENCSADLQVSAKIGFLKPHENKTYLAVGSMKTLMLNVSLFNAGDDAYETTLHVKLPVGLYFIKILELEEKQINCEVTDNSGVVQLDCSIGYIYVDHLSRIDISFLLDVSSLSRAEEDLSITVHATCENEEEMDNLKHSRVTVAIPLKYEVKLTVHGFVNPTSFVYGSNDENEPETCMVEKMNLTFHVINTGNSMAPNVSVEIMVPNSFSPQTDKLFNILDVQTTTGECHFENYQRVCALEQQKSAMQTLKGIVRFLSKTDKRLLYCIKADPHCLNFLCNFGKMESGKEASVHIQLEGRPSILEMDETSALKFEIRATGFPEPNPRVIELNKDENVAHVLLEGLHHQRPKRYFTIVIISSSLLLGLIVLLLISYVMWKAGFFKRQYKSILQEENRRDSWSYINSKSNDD
T1 sequence (P26010 20-798): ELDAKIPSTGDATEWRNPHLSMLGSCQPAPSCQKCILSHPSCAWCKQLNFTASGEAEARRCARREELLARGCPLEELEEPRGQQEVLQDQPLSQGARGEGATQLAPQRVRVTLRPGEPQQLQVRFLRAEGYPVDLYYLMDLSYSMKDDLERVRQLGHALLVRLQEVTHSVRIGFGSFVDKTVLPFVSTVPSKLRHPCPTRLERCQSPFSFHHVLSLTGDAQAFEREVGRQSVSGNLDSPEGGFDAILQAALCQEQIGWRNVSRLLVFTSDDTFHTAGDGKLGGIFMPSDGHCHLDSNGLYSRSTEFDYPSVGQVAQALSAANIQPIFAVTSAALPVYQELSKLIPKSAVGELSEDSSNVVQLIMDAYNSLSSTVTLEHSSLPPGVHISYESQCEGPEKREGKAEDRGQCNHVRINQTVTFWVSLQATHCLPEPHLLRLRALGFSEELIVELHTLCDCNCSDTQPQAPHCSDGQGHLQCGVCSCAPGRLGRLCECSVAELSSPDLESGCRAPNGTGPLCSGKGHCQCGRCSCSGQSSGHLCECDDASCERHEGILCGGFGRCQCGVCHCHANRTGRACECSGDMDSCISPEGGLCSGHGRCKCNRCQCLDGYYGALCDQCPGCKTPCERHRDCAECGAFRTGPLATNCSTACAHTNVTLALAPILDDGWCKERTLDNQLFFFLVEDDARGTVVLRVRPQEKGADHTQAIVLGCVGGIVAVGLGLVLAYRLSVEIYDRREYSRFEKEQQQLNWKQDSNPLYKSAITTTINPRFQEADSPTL
Put plainly: Integrin α4β7-MAdCAM human cell adhesion assay (RPMI8866 cells). In kind it is cell-based. The arrangement: host or cells: RPMI8866 human cells. As to conditions: for IC50: adhesion of RPMI8866 cells to MAdCAM-1 coated plates. How it is done:
RPM18866 human cells (Sigma #95041316) were cultured in RPMI 1640 medium (HyClone SH30027.1) supplemented with 10% FBS (Seradigm) and 1% Penicillin-Streptomycin. […] RPM18866 cells were resuspended at 10 million cells/ml in PBS containing […] and incubated at 37° C. for 30 min in a 50 ml tube. […] The plate was emptied by inverting and blotting on paper towels and washed manually twice with PBS. 100 μl PBS was then added to each well. The fluorescence was read (Ex495/Em515) using a plate reader (Tecan Infinite 1000). To calculate the dose response, the fluorescence value of control wells not containing cells was subtracted from each test well.

The term IC50 denotes the concentration that inhibits the measured activity by half. Read a high IC50 as a need for much substance. `CC(C)C[C@@H]1NC(=O)c2ccc(-c3ccc(N4CCN(Cc5cccc(CN6CCN(c7ccc(-c8ccc9cc8CNC(=O)[C@@H]8CCCN8C(=O)[C@H](C)NC(=O)[C@H]([C@@H](C)O)NC(=O)[C@H](CC(=O)O)NC(=O)[C@H](CC(C)C)NC9=O)cc7)CC6)c5)CC4)cc3)c(c2)CNC(=O)[C@@H]2CCCN2C(=O)[C@H](C)NC(=O)[C@H]([C@@H](C)O)NC(=O)[C@H](CC(=O)O)NC1=O` [Compound 18] gave an IC50 of 8.4 nM.

On to `CC(C)C[C@@H]1NC(=O)c2ccc(-c3ccc(N4CCNCC4)cc3)c(c2)CNC(=O)[C@@H]2CCCN2C(=O)[C@H](C)NC(=O)[C@H]([C@@H](C)O)NC(=O)[C@H](CC(=O)O)NC1=O` [Compound 8] (cyclo(P[X1]LDTA)), for which the IC50 was ~202 nM and 202 nM. Further, the “fold difference in IC50 between RAMOS and RPMI8866 cell adhesion assays, in favor of integrin α4β7” value (RAMOS (α4β1) versus RPMI8866 (α4β7)) was determined as 2.2 fold. As to `CC(C)C[C@@H]1NC(=O)c2ccc(-c3ccc(N4CCN(C(=O)COCC(=O)N5CCN(c6ccc(-c7ccc8cc7CNC(=O)[C@@H]7CCCN7C(=O)[C@H](C)NC(=O)[C@H]([C@@H](C)O)NC(=O)[C@H](CC(=O)O)NC(=O)[C@H](CC(C)C)NC8=O)cc6)CC5)CC4)cc3)c(c2)CNC(=O)[C@@H]2CCCN2C(=O)[C@H](C)NC(=O)[C@H]([C@@H](C)O)NC(=O)[C@H](CC(=O)O)NC1=O` [Compound 17], the IC50 is roughly 19 nM.
